Tests used:
[1] = system: MCF-7 cells; assay: In vitro cell activity assay (MCF-7, insulin stimulation, ELISA-One); assay type: cell-based; conditions: Homo sapiens, MCF7, compound 2 hours in serum-free media, then 10 μg/ml insulin 30 min
Protocol: Experimental Steps and Method Comprise:
1. MCF-7 cells were seeded at 2,5000 cells per well in a 96 well tissue culture plate in a complete media containing 10%0/FBS.
3. The cells were treated with 10 μg/ml insulin in serum-free media for 30 min.
4. During waiting period, lysis solution was prepared as below:
a) Enhancer Solution needs to be taken out from the refrigerator to be thawed.
b) Concentrated lysis solution was prepared by diluting Enhancer Solution 10-fold in 5× Lysis Buffer.
c) Lysis solution was prepared by diluting concentrated lysis solution 5-fold with ddH2O.
5. Any media were removed from wells and the wells were rinsed with PBS once quickly.
6. 50 μL of freshly prepared lysis solution were added into each well, with shaking at room temperature for 10 min.
7. After confirming that all cells get detached from wells, the lysis solution together with the cell debris was transferred to 1.5 ml tubes.
8. The tubes were vortexed several times to thoroughly mix the lysis solution and cells, and then, and then the mixture was centrifuged at 12,000 g for 10 min at 4° C.;
9. The desired number of ELISA-One microplate strips was determined. Unused strips were removed from frame and returned to storage pouch and seal. Wells for use in the assay were rinsed with 200 μL ddH2O to remove preservatives prior to use.
10. 50 μL of antibody mixture solution was added into each well. (Antibody mixture solution was prepared by mixing capture antibody reagent and detection antibody reagent equally, avoid vortexing)
11. 25 μL of lysate was added into each well of the ELISA-One microplate. The microplate was covered with adhesive seal and incubated for 1 hour at room temperature on a microplate shaker.
12. Each well was washed with 150 μL 1× wash buffer 3 times. After final wash, any remaining wash buffer was removed from wells. If necessary, leave microplate in 1× Wash Buffer for up to 30 min, until substrate mixture solution has been prepared.
13. The substrate mixture solution should be prepared when used, 100 μL of substrate mixture solution was added into each well, and then the microplate was sealed with tin foil and incubated at room temperature for 10 minutes on a microplate shaker.
14. 10 μL of stop solution was added into each well, and then mixed slightly (5-10 seconds) on a microplate shaker.
15. Corresponding ELISA-One filter set was installed to read the fluorescence signal intensity.

[2] = biological target: PI3K (p110α) (Homo sapiens, UniProt P42336); assay: In vitro enzyme activity assay, PI3K (p110α) kinase, Method II (ADP-Glo assay); assay type: biochemical; design: purchased Millipore 14-602-K; conditions: read-out: PI3K (p110α) enzyme activity_IC50
Protocol: PI3K (p110α) kinase activities of the compounds in all the examples of the present invention were tested via the following two methods, respectively.
Dilution of the Compound:
The compound to be tested was diluted with a 3-fold concentration gradient, and 10 concentrations (from 10000 nM to 0.5 nM) were obtained in total.
50 nL of the compound was transferred to a reaction plate (PerkinElmer #6007299) and 3 μL of enzyme/substrate mixture (0.33 nM PI3Kalpha, Millipore #14-602-K/166.5 μM PIP2) was added. After 20 min incubation, 2 uL of ATP solution (100 uM) was added to initiate the reaction. After reacting for 2 hours at room temperature, 5 μL of ADP-Glo reagent was added to terminate the kinase reaction. Then the mixture was incubated at room temperature for 60 min to completely digest the remaining unreacted ATP, 10 uL of kinase detection reagent was added, and after 40 min incubation at room temperature, […] was readed on an Envision. PIP2, ATP, ADP-Glo and the kinase detection reagent were all from ADP-Glo kinase assay kit (Promega #V1792).
IC50 was calculated using standard 4-parameter fit method (Model205, XL-fit, iDBS).

Sequence of PI3K (p110α) (P42336 whole entry): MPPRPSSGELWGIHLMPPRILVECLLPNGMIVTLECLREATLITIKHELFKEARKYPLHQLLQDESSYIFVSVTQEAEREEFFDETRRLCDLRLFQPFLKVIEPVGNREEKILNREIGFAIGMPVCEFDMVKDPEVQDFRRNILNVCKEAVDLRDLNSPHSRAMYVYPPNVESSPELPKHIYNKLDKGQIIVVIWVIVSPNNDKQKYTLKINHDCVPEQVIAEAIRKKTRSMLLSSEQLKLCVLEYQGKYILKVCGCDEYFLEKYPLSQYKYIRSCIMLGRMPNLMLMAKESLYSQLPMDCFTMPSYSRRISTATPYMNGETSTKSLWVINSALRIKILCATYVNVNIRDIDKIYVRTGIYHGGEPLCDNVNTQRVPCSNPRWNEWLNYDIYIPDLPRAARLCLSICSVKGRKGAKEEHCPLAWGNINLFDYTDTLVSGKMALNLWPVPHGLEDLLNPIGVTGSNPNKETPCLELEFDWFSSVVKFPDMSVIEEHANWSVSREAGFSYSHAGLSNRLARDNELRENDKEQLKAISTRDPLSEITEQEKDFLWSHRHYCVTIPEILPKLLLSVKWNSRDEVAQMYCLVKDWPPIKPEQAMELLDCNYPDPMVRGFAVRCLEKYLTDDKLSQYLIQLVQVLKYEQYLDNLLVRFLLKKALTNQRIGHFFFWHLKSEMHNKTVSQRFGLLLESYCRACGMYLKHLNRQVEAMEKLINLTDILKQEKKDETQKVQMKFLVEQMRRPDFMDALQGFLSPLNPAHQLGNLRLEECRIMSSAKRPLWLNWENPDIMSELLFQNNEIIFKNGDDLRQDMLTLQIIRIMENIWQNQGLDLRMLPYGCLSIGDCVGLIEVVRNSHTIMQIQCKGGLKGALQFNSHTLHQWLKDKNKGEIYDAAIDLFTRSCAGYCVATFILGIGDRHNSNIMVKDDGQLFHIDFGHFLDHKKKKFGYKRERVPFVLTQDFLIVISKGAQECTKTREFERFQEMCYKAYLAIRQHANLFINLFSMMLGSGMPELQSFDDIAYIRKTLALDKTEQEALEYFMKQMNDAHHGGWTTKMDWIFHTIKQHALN
Sequence of PI3K (p110α) (P27986 whole entry partner): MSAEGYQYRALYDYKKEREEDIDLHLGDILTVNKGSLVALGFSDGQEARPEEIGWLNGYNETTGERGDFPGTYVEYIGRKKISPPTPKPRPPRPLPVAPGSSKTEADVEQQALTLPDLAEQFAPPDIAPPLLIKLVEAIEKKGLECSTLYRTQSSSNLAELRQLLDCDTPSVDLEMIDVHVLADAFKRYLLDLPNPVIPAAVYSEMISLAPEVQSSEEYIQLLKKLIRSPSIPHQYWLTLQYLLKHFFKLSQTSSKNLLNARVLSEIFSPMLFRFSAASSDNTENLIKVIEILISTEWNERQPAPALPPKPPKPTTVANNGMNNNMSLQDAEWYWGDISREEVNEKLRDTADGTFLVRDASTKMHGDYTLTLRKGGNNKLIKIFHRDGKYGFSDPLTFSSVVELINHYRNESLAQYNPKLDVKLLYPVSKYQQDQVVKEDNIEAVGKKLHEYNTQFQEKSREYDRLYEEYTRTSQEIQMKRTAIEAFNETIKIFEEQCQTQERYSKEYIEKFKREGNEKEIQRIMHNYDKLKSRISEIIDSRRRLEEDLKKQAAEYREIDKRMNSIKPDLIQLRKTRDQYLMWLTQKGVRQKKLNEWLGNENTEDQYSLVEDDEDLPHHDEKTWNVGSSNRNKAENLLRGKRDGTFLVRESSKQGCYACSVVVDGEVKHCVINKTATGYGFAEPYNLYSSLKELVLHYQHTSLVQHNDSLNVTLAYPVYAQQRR

IC50 [1] [nM] | IC50 [2] [nM] | Structure (SMILES)
50 to 100 | ≤ 1 | COc1ncc(-c2ccc3ncc(OCCN4CCN(C)CC4)c(=O)n3c2)cc1NS(=O)(=O)c1sc(C)nc1C [Compound 4]
> 250 | ≤ 1 | COc1ncc(-c2ccc3ncc(OCCN4CC5CC4CN5C)c(=O)n3c2)cc1NS(=O)(=O)c1sc(C)nc1C (stereo not shown) [Compound 5]
≤ 50 | ≤ 1 | COc1ncc(-c2ccc3ncc(OCCN4CCCC4=O)c(=O)n3c2)cc1NS(=O)(=O)c1sc(C)nc1C [Compound 21, N-(2-Methoxy-5-(4-oxo-3-(2-(2-oxopyrrolidin-1-yl)ethoxy)-4H-pyrido[1,2-a]pyrimidin-7-yl)pyridin-3-yl)-2,4-dimethylthiazole-5-sulfonamide]
100 to 250 | ≤ 1 | COc1ncc(-c2ccc3ncc(OCCNC(C)=O)c(=O)n3c2)cc1NS(=O)(=O)c1ccc(F)cc1Cl [Compound 22]
50 to 100 | ≤ 1 | COc1ncc(-c2ccc3ncc(OCCNS(C)(=O)=O)c(=O)n3c2)cc1NS(=O)(=O)c1ccc(F)cc1Cl [Compound 23]
≤ 50 |  | COc1ncc(-c2ccc3ncc(OCC4CN(C)C4)c(=O)n3c2)cc1NS(=O)(=O)c1ccc(F)cc1Cl [Compound 28]
> 250 |  | COc1ncc(-c2ccc3ncc(OCC4(C)CNC4)c(=O)n3c2)cc1NS(=O)(=O)c1ccc(F)cc1Cl [Compound 29]
> 250 |  | COc1ncc(-c2ccc3ncc(OC4CNC4)c(=O)n3c2)cc1NS(=O)(=O)c1ccc(F)cc1Cl [Compound 30]
> 250 | ≤ 1 | COc1ncc(-c2ccc3ncc(OCC4CCCN4)c(=O)n3c2)cc1NS(=O)(=O)c1sc(C)nc1C (stereo not shown) [Compound 33]
50 to 100 | ≤ 1 | COc1ncc(-c2ccc3ncc(OCC4CCCN4C)c(=O)n3c2)cc1NS(=O)(=O)c1sc(C)nc1C (stereo not shown) [Compound 34]
 | 1 to 50 | COc1ncc(-c2ccc3ncc(OCCn4ccc(C)n4)c(=O)n3c2)cc1NS(=O)(=O)c1ccc(F)cc1F [Compound 38]
 | 1 to 50 | COc1ncc(-c2ccc3ncc(OCCn4ccc(C(F)(F)F)n4)c(=O)n3c2)cc1NS(=O)(=O)c1ccc(F)cc1F [Compound 39]
 | 1 to 50 | COc1ncc(-c2ccc3ncc(OCCn4nccc4C)c(=O)n3c2)cc1NS(=O)(=O)c1ccc(F)cc1F [Compound 40]
 | 1 to 50 | COc1ncc(-c2ccc3ncc(CN4CCOCC4)c(=O)n3c2)cc1NS(=O)(=O)c1sc(C)nc1C [Compound 51, N-(2-Methoxy-5-(3-(morpholinomethyl)-4-oxo-4H-pyrido[1,2-a]pyrimidin-7-yl)pyridin-3-yl)-2,4-dimethylthiazole-5-sulfonamide]
 | 1 to 50 | COc1ncc(-c2ccc3ncc(CN(C)C)c(=O)n3c2)cc1NS(=O)(=O)c1sc(C)nc1C [Compound 52]
 | > 200 | COc1ncc(-c2ccc3ncc(OCCN4CCOCC4)c(=O)n3c2)cc1NC(=O)Nc1sc(C)nc1C [Compound 54]
 | > 200 | COc1ncc(-c2ccc3ncc(OCCN4CCOCC4)c(=O)n3c2)cc1NC(=O)c1sc(C)nc1C [Compound 56, N-(2-Methoxy-5-(3-(2-morpholinoethoxy)-4-oxo-4H-pyrido[1,2-a]pyrimidin-7-yl)pyridin-3-yl)-2,4-dimethylthiazole-5-carboxamide]
 | > 200 | COc1ncc(-c2ccc3ncc(OCCN4CCOCC4)c(=O)n3c2)cc1S(=O)(=O)Nc1sc(C)nc1C [Compound 58, N-(2,4-dimethylthiazol-5-yl)-2-methoxy-5-(3-(2-morpholinoethoxy)-4-oxo-4H-4H-pyrido[1,2-a]pyrimidin-7-yl)pyridine-3-sulfonamide]
 | ≤ 1 | COc1ncc(-c2ccc3ncc(OCCN4CCS(=O)(=O)CC4)c(=O)n3c2)cc1NS(=O)(=O)c1sc(C)nc1C [Compound 61]
100 to 250 | ≤ 1 | COc1ncc(-c2ccc3ncc(OCCN4CCOCC4)c(=O)n3c2)cc1NS(=O)(=O)c1ccc(F)c(F)c1 [Compound 62]
≤ 50 | ≤ 1 | COc1ncc(-c2ccc3ncc(OCCN4CCOCC4)c(=O)n3c2)cc1NS(=O)(=O)c1c(Cl)cccc1Cl [Compound 63]
 | ≤ 1 | COc1ncc(-c2ccc3ncc(OCCN4CCOCC4)c(=O)n3c2)cc1NS(=O)(=O)c1c(F)cc(F)cc1Cl [Compound 64]
≤ 50 | ≤ 1 | COc1ncc(-c2ccc3ncc(OCCN4CCOCC4=O)c(=O)n3c2)cc1NS(=O)(=O)c1ccc(F)cc1Cl [Compound 65]

IC50 [1] [nM] | IC50 [2] [nM] | Structure (SMILES)
≤ 50 | 1 to 50 | COc1ncc(-c2ccc3ncc(OCC(C)N4CCOCC4)c(=O)n3c2)cc1NS(=O)(=O)c1ccc(F)cc1Cl (stereo not shown) [Compound 66]
 | 1 to 50 | COc1ncc(-c2ccc3ncc(OC(C)CN4CCOCC4)c(=O)n3c2)cc1NS(=O)(=O)c1ccc(F)cc1Cl (stereo not shown) [Compound 67]
≤ 50 | ≤ 1 | COc1ncc(-c2ccc3ncc(OCCN4CCN(C)CC4)c(=O)n3c2)cc1NS(=O)(=O)c1ccc(F)cc1Cl [Compound 68]
≤ 50 |  | COc1ncc(-c2ccc3ncc(OCCN4CCN(CC(F)(F)F)CC4)c(=O)n3c2)cc1NS(=O)(=O)c1ccc(F)cc1Cl [Compound 69]
100 to 250 | 1 to 50 | COc1ncc(-c2ccc3ncc(OCC(C)(C)N4CCOCC4)c(=O)n3c2)cc1NS(=O)(=O)c1ccc(F)cc1Cl [Compound 70]
 | 1 to 50 | COc1ncc(-c2ccc3ncc(OCC4CCN(C)CC4)c(=O)n3c2)cc1NS(=O)(=O)c1ccc(F)cc1Cl [Compound 71]
≤ 50 |  | COc1ncc(-c2ccc3ncc(OCCCN4CCN(C)CC4)c(=O)n3c2)cc1NS(=O)(=O)c1ccc(F)cc1Cl [Compound 72]
 | 1 to 50 | COc1ncc(-c2ccc3ncc(OC4CN(C)C4)c(=O)n3c2)cc1NS(=O)(=O)c1ccc(F)cc1Cl [Compound 73]
 | 1 to 50 | COc1ncc(-c2ccc3ncc(OC4CCN(C)CC4)c(=O)n3c2)cc1NS(=O)(=O)c1ccc(F)cc1Cl [Compound 74]
> 250 | ≤ 1 | COc1ncc(-c2ccc3ncc(OCCN4CCNCC4)c(=O)n3c2)cc1NS(=O)(=O)c1ccc(F)cc1Cl [Compound 75]
> 250 |  | COc1ncc(-c2ccc3ncc(OCC4CCNCC4)c(=O)n3c2)cc1NS(=O)(=O)c1ccc(F)cc1Cl [Compound 76]
> 250 | 1 to 50 | COc1ncc(-c2ccc3ncc(OCC4CCNC4)c(=O)n3c2)cc1NS(=O)(=O)c1ccc(F)cc1Cl (stereo not shown) [Compound 77]
> 250 | 1 to 50 | COc1ncc(-c2ccc3ncc(OCC4CCCN4)c(=O)n3c2)cc1NS(=O)(=O)c1ccc(F)cc1Cl (stereo not shown) [Compound 78]
 | ≤ 1 | COc1ncc(-c2ccc3ncc(OCCN(CCO)CCO)c(=O)n3c2)cc1NS(=O)(=O)c1ccc(F)cc1Cl [Compound 80]
 | 1 to 50 | COc1ncc(-c2ccc3ncc(OCC4CC(F)(F)CN4)c(=O)n3c2)cc1NS(=O)(=O)c1ccc(F)cc1Cl (stereo not shown) [Compound 83]
 | 1 to 50 | COc1ncc(-c2ccc3ncc(OCCN(CCO)CC(F)(F)F)c(=O)n3c2)cc1NS(=O)(=O)c1ccc(F)cc1Cl [Compound 84]
 | ≤ 1 | COc1ncc(-c2ccc3ncc(OCCN4CCOCC4C(N)=O)c(=O)n3c2)cc1NS(=O)(=O)c1ccc(F)cc1Cl (stereo not shown) [Compound 86]
 | ≤ 1 | COc1ncc(-c2ccc3ncc(OCCN4C5CCC4COC5)c(=O)n3c2)cc1NS(=O)(=O)c1ccc(F)cc1Cl [Compound 87]
≤ 50 |  | COc1ncc(-c2ccc3ncc(OCCN4C[C@@H](C)O[C@@H](C)C4)c(=O)n3c2)cc1NS(=O)(=O)c1ccc(F)cc1Cl [Compound 91]
 | ≤ 1 | COc1ncc(-c2ccc3ncc(OCCNCC(F)(F)F)c(=O)n3c2)cc1NS(=O)(=O)c1ccc(F)cc1Cl [Compound 92]
 | ≤ 1 | COc1ncc(-c2ccc3ncc(OCCN4CCN(S(C)(=O)=O)CC4)c(=O)n3c2)cc1NS(=O)(=O)c1ccc(F)cc1Cl [Compound 93]
> 250 |  | COc1ncc(-c2ccc3ncc(OCCN4CCNC(=O)C4)c(=O)n3c2)cc1NS(=O)(=O)c1ccc(F)cc1Cl [Compound 94]

Reference: patent US9856256B2, “Pyridino[1,2-A]pyrimidone analogue used as P13K inhibitor” (CHIA TAI TIANQING PHARMACEUTICAL GROUP CO., LTD., priority 2014, dated 2018)
